Assay results from patent US20250320496A1, “MODULATION OF ABCB11 GENE TRANSCRIPTION USING ANTISENSE OLIGONUCLEOTIDES TARGETING REGULATORY RNAS” (CAMP4 Therapeutics Corporation, priority 2022, published 2025).
Strand notation (5' to 3'): a small letter for the sugar, then the base; units joined by * are phosphorothioate-linked, units joined directly phosphodiester-linked; [ ] holds rarer units or linkages, { } end groups; capitals alone tell only the bases. e = 2'-O-(2-methoxyethyl) (MOE); l = locked nucleic acid (LNA); [5mC] = 5-methylcytosine; d = 2'-deoxy (DNA)

System: human ABCB11 mRNA
Test: ASO treatment of primary human hepatocytes (PHH), ABCB11 mRNA by RT-qPCR normalized to B2M
Format: cell-based
Conditions: PHHs, Day 3, normalized to untreated PHHs
Procedure: Primary human hepatocytes (PHH) were thawed using Lonza Human Cryopreserved Hepatocyte Thawing Medium and plated in 96-well collagen-coated plates (5.5-6.0×10^4 cells per well). Four hours later, the media was replaced with sterile-filtered QualGro™ Hepatocyte Culture Medium (BioIVT) containing antibiotic supplement, 0.3 mg/ml Matrigel® matrix (Corning®), and ASO at the desired concentration (e.g., 1.25 μM, 2.5 μM, 5 μM, or 10 μM). After 72 hrs., cells were harvested by aspirating media, washing once with phosphate-buffered saline (PBS), and lysed with 150 μl of Buffer RLT lysis buffer (Qiagen®). Plates were frozen at-80° C. during cell lysis. After thawing, total RNA was isolated using the Qiagen RNEasy kit as instructed by manufacturer. cDNA (random-primed) was synthesized from 10 μl of RNA using the LifeTech High Capacity cDNA Reverse Transcription kit. 2 μl of cDNA was used for reverse transcription-quantitative PCR (RT-qPCR) analyses using standard Taqman” reagents from Applied Biosystems™ to measure ABCB11 and CYP7A1 gene expression. Gene expression data was normalized to the housekeeper gene, beta-2-microglobulin (B2M).
To assess the ability of ASOs targeting ABCB11 regRNAs to modulate the expression of human ABCB11, 195 ASOs targeting the human ABCB11 regRNAs were synthesized. These initial ASOs were screened in PHHs at 5 μM to determine their efficacy in increasing human ABCB11 mRNA using quantitative PCR. This initial screen identified 10 ASOs that induced increased expression of ABCB11 mRNA by more than 1.5-fold (as compared to untreated PHHs).

Row | Substance | upregulation of ABCB11 mRNA
1 | CO-3974: ASO targeting the paRNA regRNA RR63 (antisense eT*e[5mC]*eT*eG*eG*eA*eA*eA*eA*eT*eA*eA*eT*eG*e[5mC]*e[5mC]*eT*eT*eT*e[5mC]) | approximately 1.5 fold

Same assay, conditions: primary human hepatocytes, 5 μM ASO with PO-modifications, normalized to untreated hepatocytes

Row | Substance | ABCB11 FC mRNA (5 μM ASO vs. untreated) [fold change]
2 | CO-11201 (antisense eT*eGeTeTeTeTeG*e[5mC]*eT*eT*eG*eG*eT*e[5mC]eAeAeGeAeG*eG) | 0.99
3 | CO-11228 (antisense eG*eT*lG*eG*eAlG*e[5mC]*eA*lAeA*e[5mC]*lT*eAeG*lG*e[5mC]*eAl[5mC]*eT*eG) | 1.99
4 | CO-11219 (antisense eG*eT*lGeG*lA*eGl[5mC]*eA*lAeA*l[5mC]*eTlA*eG*lGe[5mC]*lA*e[5mC]eT*eG) | 2.45
5 | CO-11215 (antisense eG*eT*lG*eGlA*eG*l[5mC]*eAlA*eA*l[5mC]*eTlA*eG*lG*e[5mC]lA*e[5mC]*eT*eG) | 2.68
6 | CO-11210 (antisense eG*eT*lG*eG*lAeGl[5mC]*eA*lA*eA*l[5mC]*eT*lA*eGlGe[5mC]*lA*e[5mC]*eT*eG) | 2.79
7 | CO-11205 (antisense eT*eGeT*eT*eT*eTeG*e[5mC]*eT*eTeG*eG*eT*e[5mC]eA*eA*eG*eAeG*eG) | 1.11
8 | CO-11206 (antisense eT*eGeT*eT*eTeT*eG*e[5mC]eT*eT*eGeG*eT*e[5mC]eA*eA*eGeA*eG*eG) | 1.02

Same assay, conditions: primary human hepatocytes, 5 μM ASO, normalized to untreated PHHs (UNT)

Row | Substance | ABCB11 mRNA FC (5 μM ASO vs. UNT) [fold change]
9 | CO-6675 (antisense eA*eG*e[5mC]*eA*eA*eG*e[5mC]*eT*eG*eT*eG*eT*eG*eG*eA*eA*eG*eG*eA*e[5mC]) | 1.346
10 | CO-4514 (antisense eG*e[5mC]*eG*eG*eG*eA*eT*eT*eA*eG*eA*eT*eG*eA*eG*eG*eT*e[5mC]*eT*eA) | 1.175
11 | CO-7088 (eA*e[5mC]*e[5mC]*e[5mC]*e[5mC]*l[5mC]*d[5mC]*dT*l[5mC]*dA*d[5mC]*l[5mC]*dT*dT*lG*eG*eT*eT*e[5mC]*e[5mC]; antisense) | 1.177
12 | CO-4049 (antisense eG*eT*e[5mC]*eT*e[5mC]*e[5mC]*eA*e[5mC]*eA*eA*eA*eA*e[5mC]*eT*e[5mC]*eT*eA*eT*eA*eG) | 0.889
13 | CO-7064 (eT*e[5mC]*eT*eG*lG*eA*eA*eA*lA*eT*eA*eA*lT*eG*e[5mC]*e[5mC]*lT*eT*eT*e[5mC]; antisense) | 1.017
14 | CO-7152 (antisense eA*e[5mC]*e[5mC]*eT*eT*eA*eG*dG*dA*dG*dG*dA*dT*dT*dA*dT*dT*eT*eA*eA*e[5mC]*e[5mC]*eT*e[5mC]) | 1.28
15 | CO-3974: ASO targeting the paRNA regRNA RR63 (antisense eT*e[5mC]*eT*eG*eG*eA*eA*eA*eA*eT*eA*eA*eT*eG*e[5mC]*e[5mC]*eT*eT*eT*e[5mC]) | 1.2
16 | CO-7017 (antisense eA*eA*eG*eT*eG*eA*eG*dG*d[5mC]*dA*dT*d[5mC]*dA*dG*dG*dT*dA*eA*eG*eT*eT*e[5mC]*e[5mC]*eT) | 1.182
17 | CO-7158 (antisense eA*eG*eG*eT*eG*eG*eA*eG*e[5mC]*eA*eA*eA*e[5mC]*eT*eA*eG*eG*e[5mC]*eA*e[5mC]) | 1.229
18 | CO-7010 (antisense eT*eG*eT*eG*eG*eA*eT*eG*eT*eA*eG*eA*eT*eG*eA*eA*eT*eG*eG*e[5mC]*eA*eA*eG*eG) | 1.293
19 | CO-4055 (antisense eT*eT*eG*eA*eA*e[5mC]*e[5mC]*eT*eT*eT*eA*eG*eA*eA*eA*eA*eT*e[5mC]*eG*eT) | 1.287
20 | CO-4520 (antisense eG*eG*eA*eA*eG*eA*eA*eG*eG*eT*eT*eA*eG*e[5mC]*eA*e[5mC]*eA*eG*eA*e[5mC]) | 0.945
21 | CO-4507 (antisense eG*eA*eA*eG*eA*eA*eT*eG*eG*eG*eA*eG*e[5mC]*eA*eA*eT*e[5mC]*e[5mC]*eG*e[5mC]) | 0.992
22 | CO-7206 (eT*eT*eG*eG*e[5mC]*lG*dT*dT*lA*dT*dT*dA*dA*lT*dT*d[5mC]*lT*eA*e[5mC]*eA*eG*eA; antisense) | 1.164
23 | CO-6967 (antisense eG*eA*eT*eG*eT*eA*eG*eA*eT*eG*eA*eA*eT*eG*eG*e[5mC]*eA*eA*eG*eG) | 1.405
24 | CO-3991 (antisense eG*eG*eG*eA*eT*eG*eA*e[5mC]eT*e[5mC]*e[5mC]eT*eA*eA*eA*eA*eA*eT*eG*eG) | 1.614
25 | CO-4508 (antisense eG*eT*eA*eG*eG*eA*eA*eG*eT*eT*eG*eA*eA*eT*eG*eA*eG*eT*eT*eG) | 1.185
26 | CO-7044 (antisense eT*eT*eT*eT*eG*e[5mC]*eT*eT*eG*eG*eT*e[5mC]*eA*eA*eG*eA*eG*eG*eA*eA) | 0.943

Row | Substance | ABCB11 mRNA FC (5 μM ASO vs. UNT) [fold change]
27 | CO-7154 (antisense eA*e[5mC]*e[5mC]*eT*eT*dA*dG*eG*dA*dG*eG*dA*dT*eT*dA*dT*eT*dT*dA*eA*e[5mC]*e[5mC]*eT*e[5mC]) | 1.274
28 | CO-7193: derivative ASO with additional chemical modifications based on parent ASO CO-4535 (eT*eG*eG*e[5mC]*eG*lT*eT*eA*eT*eT*lA*eA*eT*eT*e[5mC]*lT*eA*e[5mC]*eA*eG) | 1.555
29 | CO-6971 (antisense eA*eT*eG*eG*eG*eT*eG*eT*eG*eG*eA*eT*eG*eT*eA*eG*eA*eT*eG*eA) | 1.091
30 | CO-7012 (antisense eT*eG*eT*eG*eG*dA*dT*lG*dT*dA*lG*dA*dT*lG*dA*dA*lT*dG*dG*e[5mC]*eA*eA*eG*eG) | 0.985
31 | CO-7096 (eA*e[5mC]*e[5mC]*e[5mC]*e[5mC]*l[5mC]*e[5mC]*eT*e[5mC]*eA*l[5mC]*e[5mC]*eT*eT*eG*lG*eT*eT*e[5mC]*e[5mC]; antisense) | 1.157
32 | CO-3996 (antisense eT*eT*eG*eT*e[5mC]*eT*e[5mC]*eT*eG*eG*eT*eT*eG*eAeA*eG*e[5mC]*e[5mC]*eT*e[5mC]) | 2.097
33 | CO-7161 (antisense eG*eA*eT*eG*eT*eG*eG*eA*eG*eG*eT*eG*eG*eA*eG*e[5mC]*eA*eA*eA*e[5mC]) | 1.324
34 | CO-7089 (eA*e[5mC]*e[5mC]*l[5mC]*e[5mC]*d[5mC]*d[5mC]*lT*d[5mC]*dA*d[5mC]*l[5mC]*dT*dT*dG*lG*eT*eT*e[5mC]*e[5mC]; antisense) | 1.249
35 | CO-4481 (antisense e[5mC]*eA*eT*e[5mC]*eT*e[5mC]*eT*eG*eT*eG*eA*eA*eT*e[5mC]*eG*e[5mC]*eT*eA*eG*eT) | 1.18
36 | CO-7009 (antisense eT*eG*eT*eG*eG*eA*eT*dG*dT*dA*dGdA*dT*dG*dA*dA*dT*eG*eG*e[5mC]*eA*eA*eG*eG) | 1.289
37 | CO-4012 (antisense eG*eA*eA*e[5mC]*eT*eA*e[5mC]*eA*e[5mC]*e[5mC]*eG*eA*e[5mC]*eT*eT*eT*eA*eT*e[5mC]*eT) | 1.15
38 | CO-4034 (antisense e[5mC]*eG*eA*eG*eG*eT*eT*eG*eG*eA*eA*eA*eA*eG*eG*eT*eT*eG*eT*eG) | 0.792
39 | CO-6669 (antisense eG*eT*eT*eT*eA*eG*eT*eT*eG*eA*e[5mC]*eT*eG*e[5mC]*eA*eG*eA*eG*eG*eG) | 1.291
40 | CO-4494 (antisense eG*e[5mC]*eA*eG*eG*eA*eT*eG*eA*eA*eG*eT*eT*eT*eA*e[5mC]*eA*eA*eG*eG) | 1.12
41 | CO-7025 (antisense eA*eG*eT*eG*eA*eG*e[5mC]*eT*eT*eA*eT*e[5mC]*eT*eG*eG*eA*eA*eA*eA*eT) | 1.259
42 | CO-7093 (eA*e[5mC]*l[5mC]*e[5mC]*e[5mC]*l[5mC]*e[5mC]*eT*l[5mC]*eA*e[5mC]*l[5mC]*eT*eT*lG*eG*eT*lT*e[5mC]*e[5mC]; antisense) | 1.269
43 | CO-7177 (antisense eG*eT*eG*eG*lA*dG*d[5mC]*dA*lA*dA*d[5mC]*dT*lA*dG*dG*e[5mC]*lA*e[5mC]*eT*eG) | 1.455
